{"source": "ChEMBL document CHEMBL1157539", "about": "“Thousands of chemical starting points for antimalarial lead identification” (Nature, 2010)"}
{"tested_on": "Plasmodium falciparum", "assay": "GSK_TCMDC: Inhibition of Plasmodium falciparum 3D7 in whole erythrocytes, using parasite LDH activity as an index of growth.", "assay_type": "functional, organism-based", "details": "Plasmodium falciparum, 3D7", "units": {"XC50": "nM"}}
{"smiles": "CCOc1c(CNCCCNc2cc(O)c3ccccc3n2)cc(Br)cc1OC", "XC50": 1160}
{"smiles": "COC(=O)C(C)(C)Cc1c(SC(C)(C)C)c2cc(C(C)C)ccc2n1Cc1ccc(Cl)cc1", "XC50": 849}
{"smiles": "CC1CCN(C(=O)CSc2nc(-c3ccc(C(C)C)cc3)no2)CC1", "XC50": 1350}
{"smiles": "CNC(=O)c1cnc(Nc2ccc(N3CCN(C)CC3)c(C)c2)nc1NC", "XC50": 869}
{"smiles": "O=C(Nc1ccccc1)c1cccc(Nc2nccc(Nc3ccc(Oc4ccccc4)cc3)n2)c1", "XC50": 1550}
{"smiles": "CN1CCN(CC(=O)Nc2cccc(-c3ccc(-c4nc5cc(C(F)(F)F)ccc5[nH]4)cc3)c2)CC1", "XC50": 520}
{"smiles": "CC(C)(C)c1ccc(CN2CCC(CNC(=O)c3cc(-c4ccccc4F)cs3)C2)cc1", "note": "(stereo not drawn)", "XC50": 564}
{"smiles": "COc1cccc2cc(C(=O)N[C@@H](CC(C)C)C(=O)NC(/C=N/NC(=O)c3ccccc3)CCc3ccccc3)oc12", "note": "(stereo partly drawn)", "XC50": 577}
{"smiles": "CSc1ccc(C[C@@H](C)NC[C@H](O)c2cccc(Cl)c2)cc1", "XC50": 940}
{"smiles": "COc1cc2c(cc1OC)-c1cc(=Nc3c(C)cc(C)cc3C)n(C)c(=O)n1CC2", "XC50": 1110}
{"smiles": "CCNc1cc(C(=O)N[C@@H](Cc2ccccc2)[C@H](O)CNCc2cc(C#N)ccc2OC)cc(N2CCCC2=O)c1", "XC50": 1230}
{"smiles": "COc1cc2cc(Cc3cnc(N)nc3N)ccc2c(OC)c1OC", "XC50": 239}
{"smiles": "Cc1nc(C)c(-c2ccc(S(=O)(=O)c3ccc(Cl)cc3)cc2)c(O)c1Br", "XC50": 38}
{"smiles": "NC(=O)c1ccccc1Nc1nc(Nc2cccc(N3CCN(CCO)CC3)c2)ncc1Cl", "XC50": 39.6}
{"smiles": "CC(C)c1ccc(N(CC(=O)N/N=C/c2ccc(C(F)(F)F)cc2)S(=O)(=O)c2ccc(C(F)(F)F)cc2)cc1", "XC50": 846}
{"smiles": "O=C1c2ccccc2CCC1CCN1CC=C(c2c[nH]c3ccccc23)CC1", "note": "(stereo not drawn)", "XC50": 697}
{"smiles": "CCOc1ccc(N2C(N)=NC(N)=NC2(C)C)cc1", "XC50": 259}
{"smiles": "Cc1nc(-c2cccc(NCc3ccccc3)c2)[nH]c1C", "XC50": 863}
{"smiles": "Cc1cccc2nc(-c3cccc(-c4ccc(NC(=O)COc5ccccc5C(N)=O)cc4)c3)[nH]c12", "XC50": 889}
{"smiles": "O=C(Nc1ccc(CCNCc2ccccc2)cc1)Nc1ccc(OC(F)(F)F)cc1", "XC50": 584}
{"smiles": "CCn1ccc2c(N3CCCC3=O)cc(C(=O)N[C@@H](Cc3ccccc3)[C@H](O)CNCc3cccc(OC)c3)cc21", "XC50": 588}
{"smiles": "CCCc1cc(Cc2cnc(N)nc2N)ccc1OCCCCCC(=O)OCC", "XC50": 495}
{"smiles": "CCNC1=NC2=C(CC(C(C)(C)C)CC2)C2(CCC(C(C)(C)C)CC2)S1", "note": "(stereo not drawn)", "XC50": 834}
{"smiles": "NC(=O)C1Cc2ccccc2CN1CC(=O)Nc1ccccc1Sc1ccccc1", "note": "(stereo not drawn)", "XC50": 68.4}
{"smiles": "Cc1cc(Nc2cccc(C(F)(F)F)c2)nc(N)n1", "XC50": 790}
{"smiles": "O=C(/C=C/c1ccc(Cl)c(Cl)c1)NC1CCC(CN2CCC(Cc3c[nH]c4ccccc34)CC2)CC1", "note": "(stereo not drawn)", "XC50": 888}
{"smiles": "Cc1ccc(C)c(NC(=O)Nc2ccc(Nc3nc(C)cc(N4CCOCC4)n3)cc2)c1", "XC50": 978}
{"smiles": "NCC(=O)Nc1cccc(Nc2nccc(-c3c(-c4cccc(NC(=O)c5ccccc5)c4)nn4ccccc34)n2)c1", "XC50": 432}
{"smiles": "Cc1ccccc1C1CCN(C2CCC(NC(=O)C3=Cc4cc(Cl)ccc4OC3)CC2)CC1", "note": "(stereo not drawn)", "XC50": 889}
{"smiles": "Cc1cccc2nc(-c3cccc(-c4ccc(NC(=O)CN5CCOCC5)cc4)c3)[nH]c12", "XC50": 1050}
{"smiles": "Cc1cc(CNCCCCCCCNCc2ccc(-c3ccccc3)cc2)ccc1O", "XC50": 493}
{"smiles": "Cn1nccc1C(=O)NCCNCc1cccc(-c2ccc(-c3nc4ccccc4[nH]3)cc2)c1", "XC50": 473}
{"smiles": "CN1CCC(c2nc(N)no2)C1", "note": "(stereo not drawn)", "XC50": 975}
{"smiles": "O=C1Nc2cccc3c2C1(CCCCN1CCC(c2c(-c4ccc(F)cc4)[nH]c4ccccc24)CC1)CCC3", "note": "(stereo not drawn)", "XC50": 1190}
{"smiles": "Cc1noc(NC(=O)c2sc3ccccc3c2O)c1C", "XC50": 852}
{"smiles": "COc1ccc(CNc2nc(NCCc3ccccc3)c3cc(OC)c(OC)cc3n2)cc1OC", "XC50": 180}
{"smiles": "Oc1ccc(-c2nc3c4cc(I)ccc4c4ccc(I)cc4c3[nH]2)cc1", "XC50": 972}
{"smiles": "Cn1ccnc1CCC(=O)Nc1ccc(Cl)cc1C(=O)Nc1ccc(Cl)cc1", "XC50": 1560}
{"smiles": "COc1cc(CN2CCN(c3ccnc(N(C)C4CCN(C)CC4)n3)CC2)cc(Cl)c1O", "XC50": 784}
{"smiles": "COc1ccc(CN(C)CCCOc2ccc(NC(=O)c3cccc4c(=O)c5cccc(F)c5[nH]c34)cc2)cc1OC", "XC50": 637}
{"smiles": "CC(C)c1ccc(NC(=O)c2ccc(CN3CCCN(Cc4cccc(Cl)c4)CC3)cc2)cc1", "XC50": 1160}
{"smiles": "COc1ccc2nc(-c3cc(-c4ccc(NC(=O)CN5CCOCC5)cc4)cnc3N)[nH]c2c1", "XC50": 616}
{"smiles": "CN(C)CCN1CCN(Cc2ccc(-c3cccc(-c4nc5ccccc5[nH]4)c3)cc2)CC1", "XC50": 199}
{"smiles": "c1ccc2sc(Sc3ncnc4sccc34)nc2c1", "XC50": 734}
{"smiles": "Cc1ccc(C(=O)Nc2cc(C(F)(F)F)cc(C(F)(F)F)c2)cc1[N+](=O)[O-]", "XC50": 927}
{"smiles": "O=[N+]([O-])c1cccc(S(=O)(=O)N2CCN(CC(O)COc3ccc(-c4ccccc4)cc3)CC2)c1", "note": "(stereo not drawn)", "XC50": 1360}
{"smiles": "Cc1ncc([N+](=O)[O-])n1CCOC(=O)NC(Nc1ccc(Br)cc1)C(Cl)(Cl)Cl", "note": "(stereo not drawn)", "XC50": 962}
{"smiles": "O=C(Nc1ccc(OC(F)(F)F)cc1)NC1CCN(c2ccnc3ccccc23)CC1", "XC50": 297}
{"smiles": "COC(=O)c1cccc(CNCc2ccc(-c3ccc(-c4nc5cc(C(F)(F)F)ccc5[nH]4)s3)cc2)c1", "XC50": 157}
{"smiles": "O=S(=O)(Nc1ccc(-c2ccc(CN3CCCC3)cc2)cc1)c1cccc2cccnc12", "XC50": 1020}
{"smiles": "Nc1c2c(nc3ccc(C(=O)Nc4cc(I)c(O)c(I)c4)cc13)CCCC2", "XC50": 1010}
{"smiles": "Cc1ccccc1C(O)CNc1ccnc(Nc2cccc(C#N)c2)n1", "note": "(stereo not drawn)", "XC50": 875}
{"smiles": "Oc1ccccc1N1CCN(c2ccc(-c3nc4ccccc4[nH]3)cn2)CC1", "XC50": 1130}
{"smiles": "CC(C)CC(C)NC(=O)C1Cc2c([nH]c3ccc(F)cc23)C2(CCN(Cc3ccccc3)CC2)N1", "note": "(stereo not drawn)", "XC50": 970}
{"smiles": "Cc1ccc(-c2ccn(Cc3ccc(OCc4ccccc4)cc3)n2)cn1.Cc1ccc(-c2ccnn2Cc2ccc(OCc3ccccc3)cc2)cn1", "XC50": 674}
{"smiles": "Cc1c(C(=O)N(C)C)sc2c1c(=O)n(Cc1ccccc1)c(=O)n2CC(=O)Nc1ccccc1F", "XC50": 657}
{"smiles": "Cc1cc(N2CCC(C)CC2)nc2cc(O)ccc12", "XC50": 1180}
{"smiles": "CC(C)c1ccc(-c2noc(SCC(=O)N3CCCCC3C)n2)cc1", "note": "(stereo not drawn)", "XC50": 1670}
{"smiles": "COc1ccc(NC(=O)CSc2nc(-c3ccccc3Cl)ns2)cc1", "XC50": 1040}
{"smiles": "NCc1cccc(-c2ccc3ccnc(N)c3c2)c1", "XC50": 168}
{"smiles": "CCCCCC(C)NC[C@@H](O)[C@H](Cc1ccccc1)NC(=O)c1cc(NCC)cc(N2CCCCS2(=O)=O)c1", "note": "(stereo partly drawn)", "XC50": 398}
{"smiles": "COc1ccc(S(=O)(=O)NCC2CCCN(CCCCCNC(=O)/C=C/c3ccc(Cl)c(Cl)c3)C2)cc1", "note": "(stereo not drawn)", "XC50": 1060}
{"smiles": "O=C(c1ccc(Cl)cc1Cl)N1CCCC(C(F)(F)F)C1", "note": "(stereo not drawn)", "XC50": 952}
{"smiles": "CN(N=Cc1ccccc1)C(=N)NCCCC#Cc1cccc(CN2CCCC2)c1", "XC50": 1790}
{"smiles": "Fc1ccc2[nH]c(-c3ccc(-c4ccc(CN5CCN(c6ccncc6)CC5)cc4)cc3)nc2c1", "XC50": 251}
{"smiles": "CC(C)c1sc(-c2ccc(C(C)(C)C)cc2)nc1C(=O)NCCCN1CCCC1=O", "XC50": 672}
{"smiles": "COc1ccc(-c2cnc(N)c(-c3ccc(O)c(OC)c3)c2)cn1", "XC50": 875}
{"smiles": "CCCC(C)NC(=O)[C@H]1CNCCN1C(=O)CCCc1ccccc1", "note": "(stereo partly drawn)", "XC50": 186}
{"smiles": "O=C(N[C@@H](CC1CCCCC1)C(=O)NC1CCCCC1)c1ccc(O)c(-c2cccc(C(F)(F)F)c2)c1", "XC50": 747}
{"smiles": "Cn1c(=O)n(C)c2cc(CNCCNc3ccnc4cc(Cl)ccc34)ccc21", "XC50": 140}
{"smiles": "Cc1cc2ccc(-c3cccc(CN)c3)cc2nc1N", "XC50": 758}
{"smiles": "C=CCn1c(Sc2ccc(C#N)c([N+](=O)[O-])c2)nnc1-c1ccc(OC)cc1", "XC50": 795}
{"smiles": "Cc1cc(N2CCN(C)CC2)nc2ccc(NC(=O)Cc3cccc(C(F)(F)F)c3)cc12", "XC50": 737}
{"smiles": "Cc1ccc2c(OCCN3CCC(Cc4cc5c(cc4F)OCC(=O)N5)CC3)cc(F)cc2n1", "XC50": 631}
{"smiles": "OCCN1CCN(Cc2ccc(-c3cccc(-c4nc5cc(F)ccc5[nH]4)c3)cc2)CC1", "XC50": 608}
{"smiles": "CN1CC=C(c2c[nH]c3ccc(Oc4ccccc4)cc23)CC1", "XC50": 253}
{"smiles": "Cc1cc(Cl)c(S(=O)(=O)N2CCc3ccccc32)cc1OCC(=O)NC1CCCCC1", "XC50": 302}
{"smiles": "COc1ccc(NC(=O)C2c3ccccc3C(=O)N(C3CCCC3)C2c2cccs2)cc1OC", "note": "(stereo not drawn)", "XC50": 1090}
{"smiles": "CCOc1cc(C2C(C(=O)OC(C)C)=C(C)NC3=C2C(=O)CC(c2ccc(Cl)cc2)C3)ccc1OC(C)=O", "note": "(stereo not drawn)", "XC50": 932}
{"smiles": "COc1ccccc1N=C1SC(=Cc2cn(CC(=O)N3CCCc4ccccc43)c3ccccc23)C(=O)N1C1CCCCC1", "XC50": 28.9}
{"smiles": "O=C(C=Cc1ccc(F)cc1)N1CCN(S(=O)(=O)c2ccc(Cl)cc2)CC1", "XC50": 634}
{"smiles": "O=C(NC1CCCCN(Cc2ccccc2O)C1)c1ccc(-c2ccccc2)cc1", "note": "(stereo not drawn)", "XC50": 759}
{"smiles": "O=C(/C=C/c1cc(F)cc(C(F)(F)F)c1)N1CCC(CN2CCC(c3c[nH]c4ccccc34)CC2)CC1", "XC50": 756}
{"smiles": "Cc1ccc(Cn2c(N3CCC(C(=O)NCc4ccccn4)CC3)nc3ccccc32)cc1", "XC50": 408}
{"smiles": "CCOc1cc(C(=O)NC2CCN(Cc3ccccc3)CC2)ccc1-c1nc2cc(Cl)ccc2[nH]1", "XC50": 430}
{"smiles": "CC(CN1CCN(C)CC1)C(=O)Nc1ccc(-c2cccc(-c3nc4cc(C(F)(F)F)ccc4[nH]3)c2)cc1", "note": "(stereo not drawn)", "XC50": 403}
{"smiles": "CC1CCC(C[C@@H](C(=O)N[C@@H](CCC(=O)N2CCCCC2)C(=O)Nc2nccs2)[C@H](C(C)C)N(O)C=O)CC1", "note": "(stereo partly drawn)", "XC50": 615}
{"smiles": "Cn1cc(C2CCN(CCCCNC(=O)c3ccc(C(=O)Nc4ccc(C#N)cc4)cc3)CC2)c2ccccc21", "XC50": 724}
{"smiles": "COc1ccc(CN2CCCC(N3CC4(OC3=O)c3ccccc3-c3ccccc34)C2)c(O)c1", "note": "(stereo not drawn)", "XC50": 873}
{"smiles": "CCCCC(CC)C(=O)C(NC(=O)[C@H](CSC(c1ccccc1)(c1ccccc1)c1ccccc1)NC(=O)OC(C)(C)C)C(=O)OC", "note": "(stereo partly drawn)", "XC50": 1020}
{"smiles": "O=S(=O)(NCCN1CCCC1)c1ccc(-c2cccc(CNCc3ccc(F)cc3)c2)cc1", "XC50": 729}
{"smiles": "Cc1cc(NC(=O)NCCN2CCC(NS(=O)(=O)c3ccccc3Cl)C2)c2ccccc2n1", "note": "(stereo not drawn)", "XC50": 815}
{"smiles": "COc1ccc(-c2nc(NC(=O)Cc3ccc(OC)c(OC)c3)sc2C)cc1", "XC50": 1160}
{"smiles": "CCC1(C)CC(CCNCc2ccccc2O)(c2ccccc2OC)CCO1", "note": "(stereo not drawn)", "XC50": 721}
{"smiles": "CCCNC(=O)c1cncc(-c2cccc(CNC3Cc4ccccc4C3)c2)c1", "XC50": 803}
{"smiles": "Cc1onc(-c2c(Cl)cccc2Cl)c1C(=O)NC1=NC(C)(C)ON1c1ccccc1", "XC50": 1070}
{"smiles": "CCc1c(C)nc(-n2nc(C)cc2NC(=O)C(CC)c2ccccc2)[nH]c1=O", "note": "(stereo not drawn)", "XC50": 714}
{"smiles": "CCCCOc1c(CNCCCCCCNCc2ccc3ccccc3c2OCCCC)ccc2ccccc12", "XC50": 869}
